Laboratory results published in ChEMBL document CHEMBL1152688, “Bioorganic synthesis of a recombinant HIV-1 fusion inhibitor, SC35EK, with an N-terminal pyroglutamate capping group” (Bioorg Med Chem, 2009).
Non-standard residues stand in square brackets, D forms with d. Residues, ends and D or L forms follow the SMILES beside them. *: point of attachment. hSer(lactone) = O=C1OCC[C@@H]1N*; pGlu = O=C1CC[C@@H](C(=O)O)N1

Columns and labels:
[1] = tested on: Human immunodeficiency virus 1; assay: Antiviral activity against HIV1 NL4-3 infected in human HeLa cells expressing CD4/CCR5-LTR-beta-gal genes assessed as blockade of viral infection by X-gal staining based MAGI method; assay type: functional, organism-based; settings: Human immunodeficiency virus 1, NL4-3, HeLa
Serum = assay: Stability in mouse serum assessed as compound degradation by LC-MS analysis; assay type: ADME, cell-free

Compound	EC50 [1]	Stability (Serum)
CC[C@H](C)[C@H](NC(=O)[C@H](CC(C)C)NC(=O)[C@H](CCC(=O)O)NC(=O)[C@H](CCC(=O)O)NC(=O)[C@@H](NC(=O)[C@H](CCCCN)NC(=O)[C@H](CCCCN)NC(=O)[C@@H](NC(=O)[C@H](Cc1ccc(O)cc1)NC(=O)[C@H](CCC(=O)O)NC(=O)[C@H](CCC(=O)O)NC(=O)[C@@H](NC(=O)[C@H](CCCCN)NC(=O)[C@H](CCCCN)NC(=O)[C@H](CC(=O)O)NC(=O)[C@H](Cc1c[nH]c2ccccc12)NC(=O)[C@H](CCC(=O)O)NC(=O)[C@H](CCC(=O)O)NC(=O)[C@H](Cc1c[nH]c2ccccc12)NC(=O)[C@@H]1CCC(=O)N1)[C@@H](C)CC)[C@@H](C)O)[C@@H](C)CC)C(=O)N[C@@H](CCCCN)C(=O)N[C@@H](CCCCN)C(=O)N[C@@H](CO)C(=O)N[C@@H](CCC(=O)O)C(=O)N[C@@H](CCC(=O)O)C(=O)N[C@@H](CCC(N)=O)C(=O)N[C@@H](CCC(N)=O)C(=O)N[C@@H](CCCCN)C(=O)N[C@@H](CCCCN)C(=O)N[C@@H](CC(N)=O)C(=O)N[C@@H](CCC(=O)O)C(=O)N[C@@H](CCC(=O)O)C(=O)N[C@@H](CCC(=O)O)C(=O)N[C@@H](CC(C)C)C(=O)N[C@@H](CCCCN)C(=O)N[C@@H](CCCCN)C(=O)N[C@H]1CCOC1=O ([pGlu]WEEWDKKIEEYTKKIEELIKKSEEQQKKNEEELKK-{hSer(lactone)})	0.57 nM	Stable
H-WEEWDKKIEEYTKKIEELIKKSEEQQKKNEEELKK-OH	2.43 nM	Unstable
Ac-WEEWDKKIEEYTKKIEELIKKSEEQQKKNEEELKK-NH2	0.5 nM	Stable
